# Results reported in patent publication US5756491A, “Antiviral cobalt-organic compounds” (priority 1991, dated 1998).
# Legend:
# [1] = tested on: human foreskin fibroblast (HFF) cell monolayers; experiment: Toxicity effects controls: sham-inoculated compound-treated HFF monolayers; format: cell-based; on Toxicity effects: key: +: toxic; -: no toxicity; ±: mild toxicity; T: toxicity effects interfered with CPE rating
# Source text: With sufficient stirring, all the compounds completely dissolved.
# In the tables, the symbols have the meaning indicated: […]
# VZV = experiment: In vitro assay with VZV on HFF monolayers; format: cell-based; settings: for virucidal efficacy (VZV titer): Table 20, 7 days PI
# Method: VZV was grown to a CPE level in vitro assays with VZV of 3-4+ on HFF cell monolayers. The VZV was scraped from the flask, centrifuged and the cell pellet was resuspended in 10 ml of complete medium. One hundred to 200 μl of the VZV cell associated inoculum was inoculated onto confluent HFF cell monolayers by absorption for 60 minutes at 37° C. After absorption of the virus, the inoculum was aspirated from the cell monolayers.
# The VZV-infected monolayers were rehydrated with medium containing the appropriate concentrations of compounds to be tested. All monolayers were incubated at 37° C. Development of VZV cytopathology was monitored daily for 7 days by inverted light microscopy. Titers were calculated by multiple regression analysis.
# Sham-inoculated, non-treated HFF cell monolayers were included among with the drug-treated monolayers as cell monolayer controls.
# VZV inoculated, non-treated HFF monolayers were included as positive controls.
# RE strain HSV-1 = experiment: Topical efficacy in RE strain HSV-1-induced stromal keratitis in the rabbit; format: in vivo, NZW rabbit
# Method: The following examples describe topical ocular evaluation of the inventive compounds during RE strain HSV-1-induced stromal keratitis in the rabbit. These evaluations included analysis of the topical efficacy of both the inventive compounds alone, or, in certain instances, in combination with trifluorothymidine (TFT). The evaluation was carried out by the combined analysis of both clinical and virological (HSV-1 recovery) parameters. The specified number of NZW rabbits (1.5-2.0 kg) were used. Animals were received at least two days prior to inoculation to allow them to accommodate to the conditions in the vivarium facility. This conditioning of the animals prior to inoculation minimizes animal variability. After the accommodation, the animals received a slit-lamp examination to exclude any animals with pre-existing anterior segment ocular defects. Animals were bi-laterally inoculated by intrastromal injection of 10^5 PFU RE strain HSV-1. The animals were then replaced individually into cages. On day number three post-inoculation (PI), the animals were evaluated by slit-lamp microscopy. Corneal stromal, iris and conjunctival disease were graded on an increasing scale of severity from 0+ to 4+. After evaluation, the animals were divided into a specified number of groups each containing an equal number of animals based on a matched corneal stromal involvement. Topical therapy was initiated immediately after animal groupings. All animals received daily slit-lamp evaluations from day 3 through 7 PI. The ocular HSV-1 induced disease severity was recorded daily. […] Differences in disease resolution and development of stromal alterations are statistically analyzed. Virus recovery during and after topical therapy was compared. The topical efficacy of Compounds 23 and 96 on stromal HSV-1 infection in the rabbit model of stromal keratitis was evaluated. All animals received daily slit lamp evaluations from day 3 through day 7 and on days 9 and 10 PI. The ocular HSV-1-induced disease severity was recorded daily. The topical efficacy of Compounds 23, 96 and 82 on stromal HSV-1 infection in the rabbit model of stromal keratitis was evaluated. All animals received daily slit lamp evaluations for day 3 through day 7 PI. The ocular HSV-1-induced disease severity was recorded daily. The topical efficacy of Compounds 23 and 96 in combination with TFT on stromal HSV-1 infection in the rabbit model of stromal keratitis was evaluated. Groups 1, 2 and 3 each have 5 animals for a total of 10 eyes per combination therapy. This allowed minimization of individual animal variability and performance of a statistical analysis on the results of the combination therapies. Groups 3, 4 and 5 have 2 animals each. These single-agent therapies were used to verify previously reported data on the efficacy of these compounds. The compounds are used at a lower frequency of delivery to match the dosing regimen of the combination-agent group. Consequently, the study also provides comparative information on Compounds 23 and 96 as a lower frequency of topical administration (4 times per day vs. 9 times per day in previous studies).
# HFF cells = experiment: Neutral red uptake toxicity; format: cell-based, human; settings: stationary cells
# [2] = Method: A stock solution of each compound to be tested at a concentration of 5 mg/ml was prepared. The stock solution was serially diluted in Hank's Balanced Salt Solution (HBSS) to obtain final drug concentrations of 5, 2, 1, 0.5, 0.1, 0.01, 0.001 and 0.0001 mg/ml. […] In such cases, the highest dissolved concentration that could be obtained was utilized.
# Concentrations of compounds 93, 96, and 23 were prepared as follows: A stock solution of each compound at a concentration of 5 mg/ml was made. This stock solution was serially diluted in Hanks Balanced Salt Solution to obtain final drug concentrations of: 5, 2, 1, 0.5, 0.1, 0.01, 0.001, and 0.0001 mg/ml. Five hundred μl of each drug concentration were added to triplicate infected monolayers.
structure (smiles),measurement,setting,value
CC([O-])=CC(C)=NCCN=C(C)C=C(C)[O-].Cc1ncc[nH]1.Cc1ncc[nH]1.[Br-].[Co+3] [Compound 96],toxicity at 1 mg/ml (comment),[1],a lack of toxicity
same,toxicity effects,"[1]; Experiment 3 (Table 7), 24 h PI, 0.001 mg/ml",-
same,toxicity effects,"[1]; Experiment 3 (Table 7), 24 h PI, 0.01 mg/ml",-
same,toxicity effects,"[1]; Experiment 3 (Table 7), 24 h PI, 0.1 mg/ml",-
same,toxicity effects,"[1]; Experiment 3 (Table 7), 24 h PI, 1 mg/ml",-
same,toxicity effects,"[1]; Experiment 3 (Table 7), 48 h PI, 0.001 mg/ml",-
same,toxicity effects,"[1]; Experiment 3 (Table 7), 48 h PI, 0.01 mg/ml",-
same,toxicity effects,"[1]; Experiment 3 (Table 7), 48 h PI, 0.1 mg/ml",-
same,toxicity effects,"[1]; Experiment 3 (Table 7), 48 h PI, 1 mg/ml",-
same,toxicity effects,"[1]; Experiment 4 (Table 10), 24 h, 0.001 mg/ml",-
same,toxicity effects,"[1]; Experiment 4 (Table 10), 24 h, 0.01 mg/ml",-
same,toxicity effects,"[1]; Experiment 4 (Table 10), 24 h, 0.5 mg/ml",-
same,toxicity effects,"[1]; Experiment 4 (Table 10), 24 h, 1 mg/ml",-
same,toxicity effects,"[1]; Experiment 4 (Table 10), 48 h, 0.001 mg/ml",-
same,toxicity effects,"[1]; Experiment 4 (Table 10), 48 h, 0.01 mg/ml",-
same,toxicity effects,"[1]; Experiment 4 (Table 10), 48 h, 0.5 mg/ml",-
same,toxicity effects,"[1]; Experiment 5 (Table 13), 24 h, 0.00 mg/ml (so in the source)",-
same,toxicity effects,"[1]; Experiment 5 (Table 13), 24 h, 0.01 mg/ml",-
same,toxicity effects,"[1]; Experiment 5 (Table 13), 24 h, 0.5 mg/ml",-
same,toxicity effects,"[1]; Experiment 5 (Table 13), 48 h, 0.00 mg/ml (so in the source)",-
same,toxicity effects,"[1]; Experiment 5 (Table 13), 48 h, 0.01 mg/ml",-
same,toxicity effects,"[1]; Experiment 5 (Table 13), 48 h, 0.5 mg/ml",-
same,toxicity effects,"[1]; Experiment 5 (Table 13), 48 h, 5 mg/ml",+
same,toxicity effects,"[1]; Experiment 6 (Table 15), 48 h, 0.001 mg/ml",-
same,toxicity effects,"[1]; Experiment 6 (Table 15), 48 h, 0.01 mg/ml",-
same,toxicity effects,"[1]; Experiment 6 (Table 15), 48 h, 1 mg/ml",-
same,toxicity to HFF monolayers (comment),"[1]; Experiment 6 comment, more pronounced at 0.5 and 0.1 mg/ml, cell rounding, detaching, granularity",toxicity observed
same,virucidal efficacy (VZV titer),VZV; 0.001 mg/ml,10^4 PFU/ml
same,virucidal efficacy (VZV titer),VZV; 0.01 mg/ml,10^2 PFU/ml
same,virucidal efficacy (VZV titer),"VZV; 0.1 mg/ml, toxicity observation questionable",T?
same,virucidal efficacy (VZV titer),VZV; 2 mg/ml,0 PFU/ml
same,virucidal efficacy (VZV titer),VZV; 5 mg/ml,0 PFU/ml
same,effective virucidal concentration IC50,"VZV; Table 21, VZV",10 µg/mL
same,comparison with all other therapies in reducing/preventing corneal stromal keratitis,RE strain HSV-1; Example 3,superior to all other therapies in reducing and/or preventing the development of corneal stromal keratitis
same,scarring vs TFT animals,RE strain HSV-1; Example 3,significantly lower than the scarring in the TFT animals
same,efficacy ranking during stromal HSV-1 infection,"RE strain HSV-1; Example 3, all eyes, FIG. 1, 1 mg/ml (TFT 0.1%), 9x/day, 5 days",Compound 96>>Compound 23>TFT>Placebo
same,comparison with compound 23,"RE strain HSV-1; Example 3, all of the therapies used",superior properties in all of the therapies used in the studies as compared to compound 23
same,efficacy vs other topical therapies,"RE strain HSV-1; Example 3, days 4, 5 and 6 PI",significantly better results than the other topical therapies
same,"efficacy vs TFT, Placebo and Compound 23","RE strain HSV-1; Example 3, eyes with stromal disease <0.75 on day 3 PI","statistically better than TFT, Placebo and Compound 23"
same,"efficacy ranking, average stromal disease scores","RE strain HSV-1; Example 4, FIG. 2",Compound 96>Compound 82>Compound 23>TFT=Placebo
same,difference between Compound 96 single-agent and Compound 96 plus TFT,"RE strain HSV-1; Example 5, FIG. 7, <0.5 on day 3 PI",No difference
same,effect on development and progression of stromal disease,"RE strain HSV-1; Example 5, FIG. 7, score <0.5 on day 3 PI, 4 times per day",highly effective and slowed the progression and development stromal disease
same,"toxicity IC50, neutral red uptake",HFF cells,22.0 MCG/ML
same,solubility of stock solution at 1 mg/ml,[2],moderately insoluble
